Experimental data taken from PubChem BioAssay (NCI).
Values joined by “and” are separate entries in the source; they are usually repeats but may differ in a detail not shown here. Identical values can stand only once.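 Where inhibition never reached the appropriate level, the endpoint shown equals the highest concentration tested. Otherwise, values were interpolated linearly from a five-concentration, 48-hour dose response in 96-well plates. The concentration for 50% growth inhibition is given as GI50. At the TGI there is no net growth.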

What was measured:
Test in all cases: NCI anticancer screen, dose series, 48 h
[1] = tested on: OVCAR-5 ovarian
[2] = tested on: HT29 colon
[3] = tested on: HL-60(TB) leukemia
[4] = tested on: SK-MEL-28 melanoma
[5] = tested on: SN12C renal
[6] = tested on: A549 NSCLC
[7] = tested on: NCI-H226 lung

**Q.** Which results are given for `CCOC(=O)c1oc2c(OC)ccc3c2c1CCC3`?
**A.** TGI [1]: > 100 µM; TGI [2]: > 100 µM; TGI [3]: > 100 µM; TGI [4]: > 100 µM; TGI [5]: > 100 µM; TGI [6]: > 100 µM

**Q.** For `CC1CC(C[N+](=O)[O-])CC2(C1)OCCO2` (stereo not given), which TGI [7] is on record?
**A.** > 100 µM

**Q.** And the TGI [3]?
**A.** > 100 µM

**Q.** What about the TGI [4] of the same compound?
**A.** > 100 µM

**Q.** And the TGI [5]?
**A.** > 100 µM

**Q.** What about the TGI [6] of the same compound?
**A.** > 100 µM

**Q.** For `CCCCC(C(=O)C(=O)Nc1ccc(C)cc1C)C(=O)C(C)C` (stereo not given), which TGI [7] is on record?
**A.** > 100 µM

**Q.** What about the TGI [1] of the same compound?
**A.** > 100 µM

**Q.** And the TGI [2]?
**A.** > 100 µM

**Q.** What about the TGI [3] of the same compound?
**A.** > 100 µM

**Q.** What about the TGI [4] of the same compound?
**A.** > 100 µM

**Q.** What about the TGI [5] of the same compound?
**A.** > 100 µM

**Q.** What about the TGI [6] of the same compound?
**A.** > 100 µM

**Q.** With `CC(=O)OCCOCn1c2ccccc2c2c3c(c4c5ccccc5n(COCCOC(C)=O)c4c21)C(=O)N(Cc1ccccc1)C3=O` as the compound, how does the TGI [7] read?
**A.** > 100 µM

**Q.** And the TGI [1]?
**A.** > 100 µM

**Q.** What about the TGI [2] of the same compound?
**A.** > 100 µM

**Q.** And the TGI [3]?
**A.** > 100 µM

**Q.** And the TGI [4]?
**A.** > 100 µM

**Q.** What about the TGI [5] of the same compound?
**A.** > 100 µM

**Q.** And the TGI [6]?
**A.** > 100 µM

**Q.** How did the TGI [7] turn out when `COc1cc(/C=C/C(=O)c2cccc3ccccc23)cc(OC)c1OC` was run?
**A.** 30.3 µM

**Q.** And the TGI [1]?
**A.** 27.5 µM

**Q.** What about the TGI [2] of the same compound?
**A.** 14.4 µM

**Q.** What about the TGI [3] of the same compound?
**A.** 4.31 µM

**Q.** And the TGI [4]?
**A.** 19.4 µM

**Q.** What about the TGI [5] of the same compound?
**A.** 12.5 µM

**Q.** And the TGI [6]?
**A.** 37 µM

**Q.** Which results are given for `O=C1C=CC2(CCCCCCC2=O)CC1` (stereo not given)?
**A.** TGI [7]: > 100 µM; TGI [1]: > 100 µM; TGI [2]: > 100 µM; TGI [3]: > 100 µM; TGI [4]: > 100 µM; TGI [5]: > 100 µM; TGI [6]: > 100 µM

**Q.** What does the source list for `CC(=O)OC1C[C@H]2C(OC(=O)c3ccccc3)C3C4(OC(C)=O)COC4C[C@H](OC(C)=O)[C@@]3(C)C(OC(C)=O)[C@H](OC(C)=O)C(=C1C)C2(C)C` (stereo not given in full)?
**A.** TGI [7]: > 100 µM; TGI [1]: > 100 µM; TGI [2]: > 100 µM; TGI [3]: 72 µM; TGI [4]: > 100 µM; TGI [5]: > 100 µM; TGI [6]: > 100 µM

**Q.** For `O=C(NCCCCCCCCCCCCNC(=O)c1cnc2ccccc2n1)c1cnc2ccccc2n1`, which TGI [7] is on record?
**A.** > 100 µM

**Q.** What about the TGI [2] of the same compound?
**A.** > 100 µM

**Q.** And the TGI [3]?
**A.** > 100 µM

**Q.** What about the TGI [4] of the same compound?
**A.** > 100 µM

**Q.** And the TGI [5]?
**A.** > 100 µM

**Q.** What about the TGI [6] of the same compound?
**A.** > 100 µM

**Q.** For `CC(=O)Nc1ccccc1-c1nc2ccccc2nc1-c1ccccc1`, which TGI [2] is on record?
**A.** > 100 µM

**Q.** And the TGI [3]?
**A.** > 100 µM

**Q.** What about the TGI [4] of the same compound?
**A.** > 100 µM

**Q.** What about the TGI [5] of the same compound?
**A.** > 100 µM

**Q.** What about the TGI [6] of the same compound?
**A.** > 100 µM

**Q.** `O=C1c2c(O)cccc2C(C(=O)CCCCCC(=O)C2c3cccc(O)c3C(=O)c3c(O)cccc32)c2cccc(O)c21` was tested. Which GI50 [7] did it give?
**A.** 4.97 µM

**Q.** And the TGI [7]?
**A.** 7.29 µM and 11.6 µM

**Q.** What about the GI50 [1] of the same compound?
**A.** 6.96 µM

**Q.** What about the TGI [1] of the same compound?
**A.** 7.43 µM and 14.4 µM

**Q.** What about the GI50 [2] of the same compound?
**A.** 11.8 µM

**Q.** And the TGI [2]?
**A.** 11.4 µM and 23.1 µM

**Q.** What about the TGI [3] of the same compound?
**A.** 5.35 µM and 4.77 µM

**Q.** What about the GI50 [4] of the same compound?
**A.** 7.4 µM

**Q.** And the TGI [4]?
**A.** 4.63 µM and 14.8 µM

**Q.** What about the GI50 [5] of the same compound?
**A.** 10.6 µM

**Q.** And the TGI [5]?
**A.** 9.71 µM and 30 µM

**Q.** And the GI50 [6]?
**A.** 6.6 µM

**Q.** What about the TGI [6] of the same compound?
**A.** 3.68 µM and 14.5 µM

**Q.** For `O=S(=O)(C1=CC(S(=O)(=O)c2ccccc2)COC1)c1ccccc1` (stereo not given), which TGI [2] is on record?
**A.** > 100 µM

**Q.** What about the TGI [3] of the same compound?
**A.** > 100 µM

**Q.** What about the TGI [4] of the same compound?
**A.** > 100 µM

**Q.** And the TGI [5]?
**A.** > 100 µM

**Q.** What about the TGI [6] of the same compound?
**A.** > 100 µM

**Q.** `Cc1ccccc1/C=C/c1csnn1` was tested. Which TGI [7] did it give?
**A.** > 100 µM

**Q.** What about the TGI [1] of the same compound?
**A.** > 100 µM

**Q.** What about the TGI [2] of the same compound?
**A.** > 100 µM

**Q.** What about the TGI [3] of the same compound?
**A.** 39 µM

**Q.** And the TGI [4]?
**A.** > 100 µM

**Q.** And the TGI [5]?
**A.** > 100 µM

**Q.** What about the TGI [6] of the same compound?
**A.** > 100 µM

**Q.** For `COc1ccc(C(c2ccccc2C(=O)O)c2ccc(OC)c3ccccc23)c2ccccc12`, which TGI [7] is on record?
**A.** 63.5 µM

**Q.** And the TGI [1]?
**A.** 31.4 µM

**Q.** And the TGI [2]?
**A.** 27.5 µM

**Q.** What about the TGI [3] of the same compound?
**A.** 38.1 µM

**Q.** And the TGI [5]?
**A.** 29.7 µM

**Q.** What about the TGI [6] of the same compound?
**A.** 31 µM

**Q.** `O=C(CCC(=O)Nc1ccccc1C(F)(F)F)N/N=C1\C(=N\NC(=O)CCC(=O)Nc2ccccc2C(F)(F)F)C(c2ccc3c(c2)OCO3)Oc2ccccc21` (stereo not given) was tested. Which TGI [7] did it give?
**A.** > 100 µM

**Q.** And the TGI [1]?
**A.** > 100 µM

**Q.** And the TGI [2]?
**A.** > 100 µM

**Q.** And the TGI [3]?
**A.** > 100 µM

**Q.** What about the TGI [4] of the same compound?
**A.** > 100 µM

**Q.** What about the TGI [5] of the same compound?
**A.** > 100 µM

**Q.** What about the TGI [6] of the same compound?
**A.** > 100 µM

**Q.** What does the source list for `COc1cccc(/C=N/[N-]C(=O)c2ccncc2)c1[O-].[Mn+2].[OH3+]`?
**A.** GI50 [7]: 12.4 µM; TGI [7]: 86.5 µM; GI50 [1]: 37 µM; TGI [1]: 88.9 µM; GI50 [2]: 4.7 µM; TGI [2]: > 100 µM; GI50 [3]: 1.45 µM; TGI [3]: 4.19 µM; GI50 [4]: 11.2 µM; TGI [4]: > 100 µM; GI50 [5]: 17.8 µM; TGI [5]: > 100 µM; GI50 [6]: 5.69 µM; TGI [6]: > 100 µM

**Q.** Which results are given for `CCc1cccc(C(C)C)c1NC(=O)CC1Sc2ccccc2NC1=O` (stereo not given)?
**A.** TGI [7]: > 100 µM; TGI [1]: > 100 µM; TGI [2]: > 100 µM; TGI [3]: 50 µM; TGI [4]: > 100 µM; TGI [5]: > 100 µM; TGI [6]: > 100 µM

**Q.** For `Cc1noc2cccc(O)c12`, which TGI [7] is on record?
**A.** > 100 µM

**Q.** And the TGI [1]?
**A.** > 100 µM

**Q.** What about the TGI [2] of the same compound?
**A.** > 100 µM

**Q.** What about the TGI [3] of the same compound?
**A.** > 100 µM

**Q.** And the TGI [4]?
**A.** > 100 µM

**Q.** What about the TGI [5] of the same compound?
**A.** > 100 µM

**Q.** What about the TGI [6] of the same compound?
**A.** > 100 µM

**Q.** Which results are given for `Cc1ccccc1NC(=O)CC1C(=O)Nc2ccccc2S1=O` (stereo not given)?
**A.** TGI [7]: > 100 µM; TGI [1]: > 100 µM; TGI [2]: > 100 µM; TGI [3]: > 100 µM; TGI [4]: > 100 µM; TGI [5]: > 100 µM; TGI [6]: > 100 µM

**Q.** `NC1=NN(c2ccccc2)C(=O)C1C(=O)C(=O)Nc1ccc(Cl)cc1` (stereo not given) was tested. Which TGI [7] did it give?
**A.** > 100 µM

**Q.** What about the TGI [1] of the same compound?
**A.** > 100 µM

**Q.** And the TGI [2]?
**A.** > 100 µM

**Q.** What about the TGI [3] of the same compound?
**A.** > 100 µM

**Q.** What about the TGI [4] of the same compound?
**A.** > 100 µM

**Q.** And the TGI [5]?
**A.** > 100 µM

**Q.** What about the TGI [6] of the same compound?
**A.** > 100 µM

**Q.** For `CC(C)N(C(=O)C12C3C4C1C1C2C3C41C(=O)C(C)(C)C)C(C)C` (stereo not given), which TGI [1] is on record?
**A.** > 100 µM

**Q.** And the TGI [2]?
**A.** > 100 µM

**Q.** And the TGI [3]?
**A.** 63.7 µM

**Q.** What about the TGI [4] of the same compound?
**A.** > 100 µM

**Q.** What about the TGI [5] of the same compound?
**A.** > 100 µM

**Q.** And the TGI [6]?
**A.** > 100 µM

**Q.** How did the TGI [1] turn out when `C#CCN(N=O)C(=O)NC(CCCCNC(=O)OCc1ccccc1)C(=O)OCc1ccccc1` (stereo not given) was run?
**A.** 84 µM

**Q.** What about the TGI [2] of the same compound?
**A.** 46.9 µM

**Q.** And the TGI [3]?
**A.** 37.6 µM

**Q.** What about the TGI [4] of the same compound?
**A.** 77.6 µM

**Q.** What about the TGI [5] of the same compound?
**A.** 97.9 µM

**Q.** What about the TGI [6] of the same compound?
**A.** > 100 µM

**Q.** Which results are given for `CC(Oc1cc2oc(=O)cc(-c3ccccc3)c2cc1Cl)C(=O)O` (stereo not given)?
**A.** TGI [7]: > 100 µM; TGI [2]: > 100 µM; TGI [3]: > 100 µM; TGI [4]: > 100 µM; TGI [5]: > 100 µM; TGI [6]: > 100 µM
